Laboratory results: article PMC8513526, “An Advanced Automated Patch Clamp Protocol Design to Investigate Drug—Ion Channel Binding Dynamics” (Frontiers in Pharmacology, 2021)
Where two headings read alike, the source gives them in different places.

Assays:
Format in all cases: cell-based
rNaV1.4 [1] = target: T1, rNaV1.4 (Rattus norvegicus, UniProt P15390); assay: automated patch clamp (IonFlux Mercury), […]
T1 construct: gene Scn4a; recombinant rNaV1.4 channel stably expressed in HEK 293 cells

rNaV1.4 [2] = target: T1, rNaV1.4; assay: automated patch clamp (IonFlux Mercury), […]; inhibition of pulse #[…] peak current at […]
rNaV1.4 [3] = target: T1, rNaV1.4; assay: automated patch clamp (IonFlux Mercury ensemble recording; Port-a-Patch single-cell validation), […]
rNaV1.4 [4] = target: T1, rNaV1.4; assay: as above; remark: listed apart in the source

T1 sequence (P15390 whole entry): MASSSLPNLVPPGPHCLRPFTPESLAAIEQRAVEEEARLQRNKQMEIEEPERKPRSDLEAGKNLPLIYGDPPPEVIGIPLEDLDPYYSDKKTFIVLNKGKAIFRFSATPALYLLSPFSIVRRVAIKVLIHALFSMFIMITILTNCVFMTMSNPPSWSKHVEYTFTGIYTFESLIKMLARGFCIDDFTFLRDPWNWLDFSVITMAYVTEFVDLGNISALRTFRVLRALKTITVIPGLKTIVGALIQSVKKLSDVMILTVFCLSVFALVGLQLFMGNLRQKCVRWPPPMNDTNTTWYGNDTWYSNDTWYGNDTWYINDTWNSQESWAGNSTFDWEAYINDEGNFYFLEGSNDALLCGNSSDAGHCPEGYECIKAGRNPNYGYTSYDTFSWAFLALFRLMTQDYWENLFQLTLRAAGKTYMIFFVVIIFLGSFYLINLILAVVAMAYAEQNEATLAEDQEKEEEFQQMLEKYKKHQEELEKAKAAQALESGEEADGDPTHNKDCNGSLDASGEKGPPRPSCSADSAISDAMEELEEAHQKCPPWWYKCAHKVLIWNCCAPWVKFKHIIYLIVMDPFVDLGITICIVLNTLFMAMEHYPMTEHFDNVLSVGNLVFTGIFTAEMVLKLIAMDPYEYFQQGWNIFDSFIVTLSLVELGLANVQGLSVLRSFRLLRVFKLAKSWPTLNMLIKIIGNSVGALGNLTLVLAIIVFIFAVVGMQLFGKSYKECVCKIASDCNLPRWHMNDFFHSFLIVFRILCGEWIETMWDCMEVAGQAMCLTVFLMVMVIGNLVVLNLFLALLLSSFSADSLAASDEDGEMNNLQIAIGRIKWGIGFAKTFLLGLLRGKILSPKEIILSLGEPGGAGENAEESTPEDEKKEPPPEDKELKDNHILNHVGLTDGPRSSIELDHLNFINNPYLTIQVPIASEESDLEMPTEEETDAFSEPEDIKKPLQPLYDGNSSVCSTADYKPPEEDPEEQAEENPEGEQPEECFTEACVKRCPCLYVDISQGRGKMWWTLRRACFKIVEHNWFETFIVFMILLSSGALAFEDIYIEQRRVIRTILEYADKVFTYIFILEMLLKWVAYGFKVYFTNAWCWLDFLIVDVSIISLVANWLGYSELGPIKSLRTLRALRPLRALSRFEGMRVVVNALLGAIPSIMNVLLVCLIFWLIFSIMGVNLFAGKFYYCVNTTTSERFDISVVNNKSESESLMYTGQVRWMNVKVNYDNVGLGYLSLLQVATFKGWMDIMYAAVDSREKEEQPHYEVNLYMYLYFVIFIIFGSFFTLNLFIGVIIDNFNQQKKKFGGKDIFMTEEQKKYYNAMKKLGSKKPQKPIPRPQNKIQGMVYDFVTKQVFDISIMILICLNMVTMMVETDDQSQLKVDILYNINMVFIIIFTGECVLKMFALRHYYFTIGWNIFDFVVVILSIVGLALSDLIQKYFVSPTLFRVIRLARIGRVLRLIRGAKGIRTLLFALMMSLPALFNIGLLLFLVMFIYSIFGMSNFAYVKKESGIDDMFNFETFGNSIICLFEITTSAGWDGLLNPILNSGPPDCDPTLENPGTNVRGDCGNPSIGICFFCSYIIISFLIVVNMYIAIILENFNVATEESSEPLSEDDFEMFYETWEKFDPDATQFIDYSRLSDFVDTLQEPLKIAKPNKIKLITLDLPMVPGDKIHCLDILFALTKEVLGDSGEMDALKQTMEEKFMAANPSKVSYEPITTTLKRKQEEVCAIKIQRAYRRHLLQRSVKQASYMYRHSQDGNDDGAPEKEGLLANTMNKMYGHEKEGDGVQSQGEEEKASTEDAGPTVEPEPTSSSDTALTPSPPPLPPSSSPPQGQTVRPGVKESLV

With `CN(C)CCCN1c2ccccc2Sc2ccc(Cl)cc21` [chlorpromazine] the “automated patch clamp (IonFlux Mercury), 10 and 30 μM” value (rNaV1.4 [1]) was “inhibition by chlorpromazine was not much relieved throughout the whole 17-pulse sweep”.
For `CN(C)CCCN1c2ccccc2CCc2ccccc21` [imipramine], the inhibition at 30 µM (rNaV1.4 [2]) was 50 to 55%.
In the case of `CCN(CC)CC(=O)Nc1c(C)cccc1C` [lidocaine], the “automated patch clamp (IonFlux Mercury ensemble recording); Port-a-Patch single-c” value (rNaV1.4 [3]) is reported as “lidocaine caused a slowing of the fast time constant of recovery, which was moderate at lower concentrations”.
In the case of `Nc1nc2ccc(OC(F)(F)F)cc2s1` [riluzole], the “automated patch clamp (IonFlux Mercury ensemble recording); Port-a-Patch single-c” value (rNaV1.4 [4]) is reported as “riluzole caused no change in either the contribution or the value of the slow time constant but caused a radical”.
